The subject of assay [1] is DLD-1. Kind of assay: MTS assay, DLD-1. The assay is classed as cell-based. Conditions: Homo sapiens, DLD-1, 72 h. The protocol: (§1) Cells were maintained at 37° C., 5% CO2 in RPMI media supplemented with 1% fetal bovine serum, penicillin/streptomycin and fungizone (Invitrogen). Cells were seeded into 96-well tissue culture plates at 3000 per well and cultured at 37° C. for 18 h. Test compounds were dissolved and diluted to 300× in DMSO then diluted 1:40 in DMEM. Cells were incubated with test compounds for 72 hours followed by incubation with tetrazolium compound (3-(4,5-dimethylthiazol-2-yl)-5-(3-carboxymethoxyphenyl)-2-(4-sulfophenyl)-2H-tetrazolium, inner salt; MTS) and the electron coupling reagent, phenazine methosulfate (PMS) for 4 hours. […] The ability of compounds to inhibit cell growth in this assay is correlated with the reduction of dehydrogenase enzyme activity found in metabolically active cells. The measurement of the absorbance of the formazan was assessed using an ENVISION™ (Perkin Elmer) microplate reader at 492 nm. The calculated IC50 value is the concentration of the test compound that causes a 50% decrease in the absorbance.
For orientation: Formazan colour is commonly taken as a measure of viable cells.

Assay [2] relates to MDA-MB-231. Kind of assay: MTS assay, MDA-MB-231. Type of assay: cell-based. Conditions: Homo sapiens, MDA-MB-231, 72 h. The protocol: as §1
Assay [3] has as its target T1, FGFR2 (N549H) (Homo sapiens, UniProt P21802, N549H).
T1 construct: purchased Millipore 14-742
Kind of assay: FGFR2 kinase activity assay (fluorescent ELISA). Type of assay: biochemical. How it is done: The enzymatic assays described herein are conducted according to the following procedures from commercially available reagents. In one, non limiting, example, a fluorescent ELISA assay is used to identify and characterize inhibitors of FGFR2 kinase as described herein. This heterogeneous assay utilizes a biotinylated peptide with a tyrosine motif as a substrate and an anti-phospho-tyrosine antibody to measure phosphorylation of the substrate. The reaction is initiated by adding the test compound, 37 μM Pyk2 substrate (Midwest Biotech, Cat. # MBT2383), 12.5 μM ATP (Roche, Cat. #11 140 965 001) and 0.5 μM FGFR2 enzyme (Millipore, Cat. #14-742) sequentially to a non-binding polypropylene V-well plate. All reagents are in an assay buffer consisting of: 50 mM Tris-HCL, 0.02 mg/ml BSA, 10 mM MgCl2, 0.1 mM Na3VO4, 1 mM EGTA, 75 μM ATP, 0.01% NP-40, 2 mM DTT and 10% glycerol. The reaction is incubated for 60 minutes. As the reaction proceeds, FGFR2 phosphorylates tyrosines in the peptide. The reaction mixture is then moved to a blocked streptavidin-coated Nunc Maxisorb plate (coated with 100 ng streptavidin from Pierce (Cat. #15-124) per well), allowing for the capture of the biotinylated peptide. Peptides are captured for 30 minutes at room temperature, the phosphorylation of peptides continues during this phase. The reaction is stopped by washing the streptavidin-coated plate 6 times with TBST. Phosphorylated peptide is detected by adding anti-phospho-tyrosine antibody (Cell Signaling, Cat. #9411, diluted 1:3000) to the streptavidin-coated plate. Unbound anti-phospho-tyrosine antibody is removed by washing the streptavidin-coated plate 6 times with TBST. Secondary detection is performed using alkaline phosphatase tagged goat anti-mouse antibody (Pierce, Cat. #31320, diluted 1:4000) for one hour. Unbound secondary antibody is removed by washing the streptavidin-coated plate 6 times with TBST. The fluorescent readout is initiated by adding to the streptavidin-coated plate Promega Attophos substrate (Promega, Cat. # S1000, dilution=6 mg/10 ml), which, when dephosphorylated by alkaline phosphatase, emits a fluorescent signal of 595 nm in wavelength when excited by a signal of 400 nm in wavelength. The reading of the 595 nm signal is done on the Perkin Elmer Envision system. Compounds which prevent FGFR2 from phosphorylating the peptide result in a lower fluorescent signal. The 595 nm fluorescent signal is directly proportional to the activity of FGFR2. Thus, the inhibition of FGFR2 by compounds is monitored by the decrease in the 595 nm fluorescent signal.
On the technique in general: An ELISA detects its analyte on a solid surface through an enzyme-linked reagent.

By inhibition is commonly meant the change of the read-out against control, counted positive when it falls.

T1 sequence (P21802 22-821 N549H): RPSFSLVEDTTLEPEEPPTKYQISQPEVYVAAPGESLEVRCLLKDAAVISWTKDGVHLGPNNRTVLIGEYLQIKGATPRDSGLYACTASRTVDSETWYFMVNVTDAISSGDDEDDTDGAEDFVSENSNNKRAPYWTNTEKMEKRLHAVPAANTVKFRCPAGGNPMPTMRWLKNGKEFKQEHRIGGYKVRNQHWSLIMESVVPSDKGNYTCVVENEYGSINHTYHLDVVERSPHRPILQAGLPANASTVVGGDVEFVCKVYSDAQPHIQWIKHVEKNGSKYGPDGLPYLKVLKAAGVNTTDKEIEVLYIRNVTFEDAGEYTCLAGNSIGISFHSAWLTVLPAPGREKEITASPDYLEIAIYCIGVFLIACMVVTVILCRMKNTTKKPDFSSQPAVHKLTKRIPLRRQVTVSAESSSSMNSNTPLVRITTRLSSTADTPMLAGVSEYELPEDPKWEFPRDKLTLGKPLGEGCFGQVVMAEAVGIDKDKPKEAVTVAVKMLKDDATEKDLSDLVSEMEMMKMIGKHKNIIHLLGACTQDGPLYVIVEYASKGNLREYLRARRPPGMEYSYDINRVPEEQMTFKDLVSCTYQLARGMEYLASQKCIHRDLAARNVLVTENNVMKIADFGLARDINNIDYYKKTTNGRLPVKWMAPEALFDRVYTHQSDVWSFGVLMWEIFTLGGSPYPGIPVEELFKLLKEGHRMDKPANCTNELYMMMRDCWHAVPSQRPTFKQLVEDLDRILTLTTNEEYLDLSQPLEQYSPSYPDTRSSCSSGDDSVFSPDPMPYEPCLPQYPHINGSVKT

`Clc1ccc(-c2nnc(-c3cn4c5c(cccc35)CCC4)o2)cc1` [Compound 63, 1-[5-(4-chlorophenyl)-1,3,4-oxadiazol-2-yl]-5,6-dihydro-4H-pyrrolo[3,2,1-ij]quinoline]: the figures for the inhibition at 10 µM in assay [1] and in assay [2] were 98% and 100%, respectively.

Consider `O=C(NCc1ccccc1)N1CCC(CNc2nccc(-c3cn4c5c(cccc35)CCC4)n2)CC1` [Compound 47, N-benzyl-4-((4-(5,6-dihydro-4H-pyrrolo[3,2,1-ij]quinolin-1-yl)pyrimidin-2-ylamino)methyl)piperidine-1-carboxamide], for which the values for the inhibition at 10 µM in assay [1] and in assay [2] were 98% and 97%, respectively. Besides, the inhibition at 30 µM in assay [3] is 60%.

`CCOC(=O)c1ccc(NC(=O)N2CCC(CNc3nccc(-c4cn5c6c(cccc46)CCC5)n3)CC2)cc1` [Compound 40, ethyl 4-(4-((4-(5,6-dihydro-4H-pyrrolo[3,2,1-ij]quinolin-1-yl)pyrimidin-2-ylamino)methyl)piperidine-1-carboxamido)benzoate]: the inhibition at 10 µM in assay [1] was found to be 98%; in assay [2], 99%. In assay [3], the inhibition at 30 µM came out at 68%.

Take `CC(C)NC(=O)N1CCC(CNc2nccc(-c3cn4c5c(cccc35)CCC4)n2)CC1` [Compound 46, 4-((4-(5,6-dihydro-4H pyrrolo[3,2,1-ij]quinolin-1-yl)pyrimidin-2-ylamino)methyl)-N-isopropylpiperidine-1-carboxamide]: the inhibition at 10 µM in assay [1] was 52%. In assay [3], the inhibition at 30 µM is 61%.

Turning to `c1cc2c3c(c1)c(-c1nnnn1CC1CCNCC1)cn3CCC2` [Compound 81, 1-[1-(piperidin-4-ylmethyl)-1H-tetrazol-5-yl]-5,6-dihydro-4H-pyrrolo[3,2,1-ij]quinoline], in assay [3], the inhibition at 30 µM is 91%.

Take `NC1CCC(n2nnnc2-c2cn3c4c(cccc24)CCC3)CC1` (stereo not shown) [Compound 82, 4-[5-(5,6-dihydro-4H-pyrrolo[3,2,1-ij]quinolin-1-yl)-1H-tetrazol-1-yl]cyclohexanamine]: in assay [3], the inhibition at 30 µM came out at 91%.

For `O=C(Nc1cccc(Cl)c1)N1CCC(CNc2nccc(-c3cn4c5c(cccc35)CCC4)n2)CC1` [Compound 49, N-(3-chlorophenyl)-4-((4-(5,6-dihydro-4H-pyrrolo[3,2,1-ij]quinolin-1-yl)pyrimidin-2-ylamino)methyl)piperidine-1-carboxamide], the inhibition at 10 µM in assay [1] stood at 96%; in assay [2] it was 85%. Besides, in assay [3], the inhibition at 30 µM was 58%.

As to `CC(=O)c1ccccc1NC(=O)N1CCC(CNc2nccc(-c3cn4c5c(cccc35)CCC4)n2)CC1` [Compound 51, N-(2-acetylphenyl)-4-((4-(5,6-dihydro-4H-pyrrolo[3,2,1-ij]quinolin-1-yl)pyrimidin-2-ylamino)methyl)piperidine-1-carboxamide], the inhibition at 10 µM in assay [1] was 97%; in assay [2], 72%. The inhibition at 30 µM in assay [3] was found to be 52%.

Turning to `O=C(Nc1ccc(-c2ccccc2)cc1)N1CCC(CNc2nccc(-c3cn4c5c(cccc35)CCC4)n2)CC1` [Compound 39, N-(biphenyl-4-yl)-4-((4-(5,6-dihydro-4H-pyrrolo[3,2,1-ij]quinolin-1-yl)pyrimidin-2-ylamino)methyl)piperidine-1-carboxamide], the inhibition at 10 µM in assay [1] worked out at 52%; in assay [2], 31%. Besides, the inhibition at 30 µM in assay [3] stood at 71%.

On to `CCOC(=O)NC(=O)N1CCC(CNc2nccc(-c3cn4c5c(cccc35)CCC4)n2)CC1` [Compound 41, ethyl 4-((4-(5,6-dihydro-4H-pyrrolo[3,2,1-ij]quinolin-1-yl)pyrimidin-2-ylamino)methyl)piperidine-1-carbonylcarbamate], for which the inhibition at 10 µM in assay [2] was 33%. Further, in assay [3], the inhibition at 30 µM amounted to 68%.

With `c1cc2c3c(c1)c(-c1ccnc(N[C@H]4CCCNC4)n1)cn3CCC2` [Compound 37, (S)-4-(5,6-dihydro-4H-pyrrolo[3,2,1-ij]quinolin-1-yl)-N-(piperidin-3-yl)pyrimidin-2-amine], the inhibition at 10 µM in assay [1] and in assay [2] was 83% throughout. For the same compound, the inhibition at 30 µM in assay [3] amounted to 102%.

As to `O=S(=O)(c1ccc(Cl)cc1)N1CCC(CNc2nccc(-c3cn4c5c(cccc35)CCC4)n2)CC1` [Compound 35, N-((1-(4-chlorophenylsulfonyl)piperidin-4-yl)methyl)-4-(5,6-dihydro-4H-pyrrolo[3,2,1-ij]quinolin-1-yl)pyrimidin-2-amine], the inhibition at 10 µM worked out at 97% in assay [1] and 98% in assay [2].

On to `O=C(Nc1ccc(Cl)cc1)N1CCC(CNc2nccc(-c3cn4c5c(cccc35)CCC4)n2)CC1` [Compound 44, N-(4-chlorophenyl)-4-((4-(5,6-dihydro-4H-pyrrolo[3,2,1-ij]quinolin-1-yl)pyrimidin-2-ylamino)methyl)piperidine-1-carboxamide], for which the inhibition at 10 µM in assay [1] was 97%; in assay [2], 84%. In addition, the inhibition at 30 µM in assay [3] was determined as 65%.

Take `CC(C)(C)NC(=O)N1CCC(CNc2nccc(-c3cn4c5c(cccc35)CCC4)n2)CC1` [Compound 52, N-tert-butyl-4-((4-(5,6-dihydro-4H-pyrrolo[3,2,1-ij]quinolin-1-yl)pyrimidin-2-ylamino)methyl)piperidine-1-carboxamide]: the inhibition at 10 µM in assay [1] stood at 55%. Also, the inhibition at 30 µM in assay [3] came out at 51%.

With `CC(C)(C)C(=O)N1CCC(CNc2nccc(-c3cn4c5c(cccc35)CCC4)n2)CC1` [Compound 36, 1-(4-((4-(5,6-dihydro-4H-pyrrolo[3,2,1-ij]quinolin-1-yl)pyrimidin-2-ylamino)methyl)piperidin-1-yl)-2,2-dimethylpropan-1-one], the inhibition at 10 µM in assay [1] is 85%.

Turning to `COc1ccc(NC(=O)N2CCC(CNc3nccc(-c4cn5c6c(cccc46)CCC5)n3)CC2)c(OC)c1` [Compound 53, 4-((4-(5,6-dihydro-4H-pyrrolo[3,2,1-ij]quinolin-1-yl)pyrimidin-2-ylamino)methyl)-N-(2,4-dimethoxyphenyl)piperidine-1-carboxamide], the results for the inhibition at 10 µM in assay [1] and in assay [2] were 98% and 95%, respectively. In addition, the inhibition at 30 µM in assay [3] came out at 48%.

Take `c1cc2c3c(c1)c(-c1nnnn1C1CCCNC1)cn3CCC2` (stereo not shown) [Compound 83, 1-(1-piperidin-3-yl-1H-tetrazol-5-yl)-5,6-dihydro-4H-pyrrolo[3,2,1-ij]quinoline]: the inhibition at 30 µM in assay [3] was 84%.

For the compound `CS(=O)(=O)N1CCC(CNc2nccc(-c3cn4c5c(cccc35)CCC4)n2)CC1` [Compound 48, 4-(5,6-dihydro-4H-pyrrolo[3,2,1-ij]quinolin-1-yl)-N-((1-(methylsulfonyl)piperidin-4-yl)methyl)pyrimidin-2-amine], the inhibition at 30 µM in assay [3] was 59%.

As to `Cc1nnc(-c2cn3c4c(cccc24)CCC3)o1` [Compound 56, 1-(5-methyl-1,3,4-oxadiazol-2-yl)-5,6-dihydro-4H-pyrrolo[3,2,1-ij]quinoline], the inhibition at 10 µM in assay [1] is 94%; in assay [2], 77%.

Take `CCOC(=O)CNC(=O)N1CCC(CNc2nccc(-c3cn4c5c(cccc35)CCC4)n2)CC1` [Compound 34, ethyl 2-(4-((4-(5,6-dihydro-4H-pyrrolo[3,2,1-ij]quinolin-1-yl)pyrimidin-2-ylamino)methyl)piperidine-1-carboxamido)acetate]: the inhibition at 10 µM in assay [1] came out at 65%. Besides, the inhibition at 30 µM in assay [3] was 60%.

The values above are taken from patent US8563567B2, “Substituted heterocyclic compounds” (ArQule, Inc., priority 2009, dated 2013).
